{
  "source": "patent US6803466B1",
  "about": "“HIV/FIV protease inhibitors having a small P3 residue” (The Scripps Research Institute, priority 1997, dated 2004)",
  "key": {"I84V mutant": {"test_system": "I84V mutant", "test": "Cell culture IC90, I84V mutant", "format": "cell-based, HIV", "conditions": "Human immunodeficiency virus 1, read-out: IC90 against the I84V mutant"}, "feline T-cells": {"test_system": "feline T-cells", "test": "Toxicity to feline T-cells in culture", "format": "cell-based", "description": "For FIV, the assays were performed in FIV-infected feline T-cells which were cultured in the presence of compound 1200 at different concentrations over the course of 1 month. Each data in FIG. 14 represents the amount of pelletable FIV reverse transcriptase in the culture supernatant. […] Furthermore, this inhibitor was not toxic to feline T-cells. After one month, the drug-treated cultures were split and replated with and without compound 1200.\nThe lymphocytic cell line 104-C1 (provided by C. Grant) was used as the target for infection. Cells were cultured in RPMI-1640 media supplemented with 10% FBS, 200 μM L-Glutamine, 1×MEM-Vitamins, 100 μM Sodium Pyruvate, 1×Non-Essential Amino Acids, 5.5×10−5M b-ME, 50 μg/ml Gentamicin, 50 U/ml human recombinant Interleukin-2 (provided by Hoffmann-LaRoche) and 7.5 μg/ml Concanavalin-A. For inhibitor assessment, 5×10^6 cells were infected with FIV-PPR (4×105 RT units) in 1 mL culture for 2 hr at 37° C. No virus and virus only controls were incubated in a similar manner. The cells were then washed with Hanks-buffered saline solution (HBSS) and resuspended in 10 ml of complete medium. […] The culture supernatants were monitored for the presence of pelletable reverse transcriptase activity at weekly intervals, as follows. […] The paper was then dried and counted on a scintillation counter."}, "[1]": {"test_system": "FIV-PPR in feline T-cells (104-C1)", "test": "Ex vivo inhibitor analysis against FIV, pelletable reverse transcriptase in culture supernatant", "format": "cell-based, feline immunodeficiency virus", "conditions": "for FIV replication, pelletable reverse transcriptase: feline T-cells, 1 month", "description": "For FIV, the assays were performed in FIV-infected feline T-cells which were cultured in the presence of compound 1200 at different concentrations over the course of 1 month. Each data in FIG. 14 represents the amount of pelletable FIV reverse transcriptase in the culture supernatant. […] After one month, the drug-treated cultures were split and replated with and without compound 1200.\nThe lymphocytic cell line 104-C1 (provided by C. Grant) was used as the target for infection. Cells were cultured in RPMI-1640 media supplemented with 10% FBS, 200 μM L-Glutamine, 1×MEM-Vitamins, 100 μM Sodium Pyruvate, 1×Non-Essential Amino Acids, 5.5×10−5M b-ME, 50 μg/ml Gentamicin, 50 U/ml human recombinant Interleukin-2 (provided by Hoffmann-LaRoche) and 7.5 μg/ml Concanavalin-A. For inhibitor assessment, 5×10^6 cells were infected with FIV-PPR (4×105 RT units) in 1 mL culture for 2 hr at 37° C. […] The cells were then washed with Hanks-buffered saline solution (HBSS) and resuspended in 10 ml of complete medium. The compound 1200 (10 mg/mL in DMSO) was then added to final concentrations of 0.1, 0.5, 1, and 5 μg/ml in duplicate. The cells were then incubated at 37° C. The culture supernatants were monitored for the presence of pelletable reverse transcriptase activity at weekly intervals, as follows. Cell-free culture supernatants (4 ml) were centrifuged at 60K for 30 min and the pellets were resuspended in 100 μl of lysis buffer containing 40 mM TrisHCl (pH 8.1), 360 mM NaCl, 20 mM DTT and 0.2% NP40. Twenty five μl of lysate was added to 25 μl of a mixture containing polyrA-pdT (Pharmacia, Piscataway, N.J.), MgCl2, and 3H-labeled deoxythymidine 5′-triphosphate (DuPont NEN, Boston, Mass.), and incubated for 1 hr at 37° C. The mixture was spotted on DE81 paper, air-dried, fixed in 0.1 M sodium pyrophosphate, washed three times in 0.3 M ammonium formate, and an additional time in 95% ethanol. The paper was then dried and counted on a scintillation counter.\nCells were split 1:5 after the second, third, and fourth time points and fresh inhibitor was added at the appropriate concentration at each of these intervals. The data were expressed as values +/−standard deviation of the mean."}, "FIV PR": {"biological_target": "T1, FIV PR (Feline immunodeficiency virus, UniProt P16088, C122K/G43I/N93T)", "T1 construct": "made in house; host or cells: E. coli BL21(DE3)", "test": "Inhibition of FIV PR (Ki, IC50)", "format": "biochemical", "description": "The solution was mixed and incubated for 10 minutes at 37° C. and the reaction quenched by addition of 8M guanidine HCl solution containing 0.2 M sodium acetate at pH 4.2 (100 μL). The cleavage products and substrate were separated by reverse phase HPLC. Absorbance was measured at 215 nm, peak areas were determined and percent conversion to product was calculated using relative peak areas. […] IC50 was determined as the inhibitor concentration at 50% inhibition. […] ([S]=substrate concentration in nmol). The data used was generated similarly to that for Ki with the following modifications. The substrate concentrations used were 560, 448, 336, 224, 111 and 56 μM, in the absence of inhibitor.\nKinetic determinations for both HIV PR and FIV PRs were performed at 37° C. at pH 5.25 in duplicate using F-2000 fluorescence spectrophotometer (Hitachi).\nFor FIV PRs, the kinetic data were determined under the similar reaction conditions as for HIV PR."}, "82F/84V mutant": {"test_system": "82F/84V mutant", "test": "Cell culture IC90, 82F/84V mutant", "format": "cell-based, HIV", "conditions": "Human immunodeficiency virus 1, read-out: IC90 against the 82F/84V mutant"}, "uninfected 174×CEM cells": {"test_system": "uninfected 174×CEM cells", "test": "Effect on uninfected cells of the SIV assay", "format": "cell-based", "conditions": "10, 1.0, 0.1 and 0.001 μg/ml", "description": "Cells were acutely infected with approximately 400 TCID50 units of SIVmac251 for 90 min at 37° C. The cells were collected by centrifugation, washed twice with medium to remove free virus, then plated in 0.45 ml medium in 48-well tissue culture plates, at 10^5 cells per well. Compound 1200, prepared as a 10 mg/ml stock in DMSO, was then added to final concentrations of 10, 1.0, 0.1, and 0.001 μg/ml final concentrations, in triplicate cultures. Triplicate control cultures received medium only."}},
  "data": [
    {"molecule": "CC(C)[C@H](NC(=O)[C@H](C)NC(=O)OCc1ccccc1)C(=O)N[C@@H](Cc1ccccc1)[C@@H](O)[C@H](O)[C@H](Cc1ccccc1)NC(=O)[C@@H](NC(=O)[C@H](C)NC(=O)OCc1ccccc1)C(C)C", "note": "[Compound 1b]", "values": [
      {"measurement": "IC90", "setting": "I84V mutant", "value": 400, "unit": "nM"},
      {"measurement": "toxicity to cells", "setting": "feline T-cells", "value": "not toxic"},
      {"measurement": "prevention of FIV infection in tissue culture (in words)", "setting": "[1]", "value": "strongly inhibits"},
      {"measurement": "FIV replication, pelletable reverse transcriptase", "setting": "[1]; 1.0 μg/ml (1.1 μM)", "value": "most effective"},
      {"measurement": "virus after drug-treated cultures were split and replated with and without drug", "setting": "[1]; after one month of treatment, two weeks in culture", "value": "No virus was detected"},
      {"measurement": "resistance development against the drug", "setting": "[1]; eight weeks of continuous culture", "value": "No sign of resistance development"},
      {"measurement": "FIV replication, pelletable reverse transcriptase", "setting": "[1]", "value": "markedly inhibit"},
      {"measurement": "Ki", "setting": "FIV PR", "value": 41, "unit": "nM"},
      {"measurement": "IC90", "setting": "82F/84V mutant", "value": 900, "unit": "nM"},
      {"measurement": "effects on uninfected cells", "setting": "uninfected 174×CEM cells", "value": "no effects noted"}
    ]}
  ]
}
